Measured values published in the supplement of paper PMC10011410.
± gives the standard deviation of the averaged measurements.

Columns and labels:
[1] = tested on: U-2 OS; assay: intracellular GSH:GSSG ratio (calculated); higher = more reduced glutathione pool; conditions: 24 h
Experimental: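 Intracellular glutathione in U-2 OS cells after 24 h compound treatment at 5, 10 and 20 uM (some at 40 and 80 uM). Total glutathione and GSSG were measured with the GSH/GSSG-Glo kit, and the GSH:GSSG ratio was calculated. Mean of five technical replicate plates.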

[2] = tested on: U-2 OS; assay: cell painting activity score (Mahalanobis distance from DMSO wells); higher = stronger morphological phenotype; conditions: 24 h
In short: (§1)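 U-2 OS cells were seeded at about 1,500 per well in 384-well plates and treated by pin tool for 24 h at 37 °C, usually at six 2-fold concentrations from 20 μM to 625 nM. After staining with MitoTracker, concanavalin A, phalloidin, wheat germ agglutinin, Hoechst and SYTO 14, plates were imaged on an Opera Phenix and features were extracted with CellProfiler and normalized to DMSO cells on the same plate. The activity score is the Mahalanobis distance from DMSO wells, and cell count is given relative to DMSO wells. Each value is the mean of four replicate plates.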

[3] = tested on: U-2 OS; assay: AUC of culture confluence over time (live-cell imaging) (AUC (confluence % x time)); higher = more confluent culture (less growth inhibition)
In short: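 The value is the area under the curve of confluence plotted against time. U-2 OS cells in F-12K medium with 10% FBS were seeded at 750 per well in 384-well plates, then treated by pin tool 24 h later, most compounds at 20, 10 and 5 μM with 0.2% DMSO. At 37 °C, an Incucyte S3 with a 10x objective imaged the wells every 4 h for up to 60 h.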

[4] = tested on: U-2 OS; assay: total intracellular glutathione (GSH + GSSG) relative to DMSO (% of control); higher = more glutathione; conditions: 24 h
Experimental: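 Total intracellular glutathione (GSH + GSSG) in U-2 OS cells by GSH/GSSG-Glo after 24 h compound treatment at 5, 10 and 20 uM (some at 40 and 80 uM), as percent of DMSO control. Five technical replicate plates, averaged.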

[5] = tested on: U-2 OS; assay: relative cell count vs DMSO (cell painting) (fraction of DMSO control); higher = more cells remaining (less cytotoxic); conditions: 24 h
In short: as §1

[6] = tested on: U-2 OS; assay: cell viability (CellTiter-Glo) relative to DMSO (% of control); higher = more viable; conditions: 24 h
Experimental: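 Cell viability of U-2 OS cells by CellTiter-Glo after 24 h compound treatment at 5, 10 and 20 uM (some at 40 and 80 uM), measured in parallel with the glutathione assay, as percent of DMSO control. Five technical replicate plates, averaged.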

Structure (SMILES): Cc1onc(C(=O)N2CCN(C(c3ccc(Cl)cc3)c3ccc(Cl)cc3)CC2)c1[N+](=O)[O-]
- intracellular GSH:GSSG ratio ([1]; 5 µM): 21
- intracellular GSH:GSSG ratio ([1]; 10 µM): 19.2
- intracellular GSH:GSSG ratio ([1]; 20 µM): 16.3
- cell painting activity score ([2]; 0.625 µM): 8.18
- cell painting activity score ([2]; 1.25 µM): 8.49
- cell painting activity score ([2]; 2.5 µM): 10.6
- cell painting activity score ([2]; 5 µM): 9.26
- cell painting activity score ([2]; 10 µM): 11.2
- cell painting activity score ([2]; 20 µM): 11.3
- AUC of culture confluence over time ([3]; 5 µM): 31.1
- AUC of culture confluence over time ([3]; 10 µM): 29.2
- AUC of culture confluence over time ([3]; 20 µM): 28.8
- total intracellular glutathione ([4]; 5 µM): 107.3 ± 0.95
- total intracellular glutathione ([4]; 10 µM): 110 ± 4.7
- total intracellular glutathione ([4]; 20 µM): 107 ± 4.3
- relative cell count ([5]; 0.625 µM): 0.903
- relative cell count ([5]; 1.25 µM): 0.945
- relative cell count ([5]; 2.5 µM): 0.883
- relative cell count ([5]; 5 µM): 0.853
- relative cell count ([5]; 10 µM): 0.9
- relative cell count ([5]; 20 µM): 0.81
- cell viability ([6]; 5 µM): 88.8 ± 4.4
- cell viability ([6]; 10 µM): 92.4 ± 4.1
- cell viability ([6]; 20 µM): 84.1 ± 6.2

Structure (SMILES): CC(=O)c1c(O)c(C)c(O)c(Cc2c(O)c3c(c(C(=O)C=Cc4ccccc4)c2O)OC(C)(C)C=C3)c1O
- intracellular GSH:GSSG ratio ([1]; 5 µM): 25.1
- intracellular GSH:GSSG ratio ([1]; 10 µM): 24.3
- intracellular GSH:GSSG ratio ([1]; 20 µM): 26.6
- intracellular GSH:GSSG ratio ([1]; 40 µM): 26.7
- intracellular GSH:GSSG ratio ([1]; 80 µM): 15
- cell painting activity score ([2]; 0.625 µM): 4.78
- cell painting activity score ([2]; 1.25 µM): 3.41
- cell painting activity score ([2]; 2.5 µM): 4.37
- cell painting activity score ([2]; 5 µM): 3.79
- cell painting activity score ([2]; 10 µM): 6.83
- cell painting activity score ([2]; 20 µM): 11.2
- cell painting activity score ([2]; 40 µM): 13.1
- cell painting activity score ([2]; 80 µM): 12.8
- AUC of culture confluence over time ([3]; 5 µM): 39.9
- AUC of culture confluence over time ([3]; 10 µM): 35.4
- AUC of culture confluence over time ([3]; 20 µM): 29
- AUC of culture confluence over time ([3]; 40 µM): 22.2
- AUC of culture confluence over time ([3]; 80 µM): 18.2
- total intracellular glutathione ([4]; 5 µM): 95.7 ± 2.9
- total intracellular glutathione ([4]; 10 µM): 91.7 ± 4.9
- total intracellular glutathione ([4]; 20 µM): 89.9 ± 4.4
- total intracellular glutathione ([4]; 40 µM): 83.2 ± 1.9
- total intracellular glutathione ([4]; 80 µM): 84.2 ± 4.5
- relative cell count ([5]; 0.625 µM): 1.07
- relative cell count ([5]; 1.25 µM): 1.12
- relative cell count ([5]; 2.5 µM): 1.14
- relative cell count ([5]; 5 µM): 1.14
- relative cell count ([5]; 10 µM): 1.11
- relative cell count ([5]; 20 µM): 1.07
- relative cell count ([5]; 40 µM): 0.889
- relative cell count ([5]; 80 µM): 0.727
- cell viability ([6]; 5 µM): 98.4 ± 1.9
- cell viability ([6]; 10 µM): 93.9 ± 3.6
- cell viability ([6]; 20 µM): 91.9 ± 4.7
- cell viability ([6]; 40 µM): 89 ± 4.1
- cell viability ([6]; 80 µM): 78.4 ± 1.5

Structure (SMILES): O=C(OCC)/C(C(OCC)=O)=C\CCCCCCCCCCCCCC
- intracellular GSH:GSSG ratio ([1]; 5 µM): 18.9
- intracellular GSH:GSSG ratio ([1]; 10 µM): 17.6
- intracellular GSH:GSSG ratio ([1]; 20 µM): 21.8
- intracellular GSH:GSSG ratio ([1]; 40 µM): 22
- intracellular GSH:GSSG ratio ([1]; 80 µM): 20.9
- cell painting activity score ([2]; 0.625 µM): 5.04
- cell painting activity score ([2]; 1.25 µM): 5.19
- cell painting activity score ([2]; 2.5 µM): 5.29
- cell painting activity score ([2]; 5 µM): 5.06
- cell painting activity score ([2]; 10 µM): 5.95
- cell painting activity score ([2]; 20 µM): 10.9
- cell painting activity score ([2]; 40 µM): 7.78
- cell painting activity score ([2]; 80 µM): 10.2
- AUC of culture confluence over time ([3]; 5 µM): 53.1
- AUC of culture confluence over time ([3]; 10 µM): 50.2
- AUC of culture confluence over time ([3]; 20 µM): 48.9
- AUC of culture confluence over time ([3]; 40 µM): 50.4
- AUC of culture confluence over time ([3]; 80 µM): 50.3
- total intracellular glutathione ([4]; 5 µM): 100 ± 4.9
- total intracellular glutathione ([4]; 10 µM): 95.7 ± 3.5
- total intracellular glutathione ([4]; 20 µM): 93.1 ± 2
- total intracellular glutathione ([4]; 40 µM): 105 ± 4.8
- total intracellular glutathione ([4]; 80 µM): 98.9 ± 3
- relative cell count ([5]; 0.625 µM): 0.991
- relative cell count ([5]; 1.25 µM): 0.978
- relative cell count ([5]; 2.5 µM): 0.959
- relative cell count ([5]; 5 µM): 1.02
- relative cell count ([5]; 10 µM): 0.99
- relative cell count ([5]; 20 µM): 0.967
- relative cell count ([5]; 40 µM): 0.841
- relative cell count ([5]; 80 µM): 0.829
- cell viability ([6]; 5 µM): 94.3 ± 6.5
- cell viability ([6]; 10 µM): 96.7 ± 6.4
- cell viability ([6]; 20 µM): 100 ± 8
- cell viability ([6]; 40 µM): 98 ± 6.9
- cell viability ([6]; 80 µM): 99.2 ± 6.2
